Data from US20090081310A1, “METHOD FOR R[…] STRUCTURE CO[…] MOLD” (priority 2004, published 2009).

Tests used:
mold and mold spores [1] = experiment: Fumigation of an approximately 50,000 ft^2 mold-contaminated building with chlorine dioxide gas (Example 1); settings: 2,500 to 3,000 ppmv over 3 hours; approx. 75° F., approx. 75% relative humidity
Description: An approximately 50,000 ft^2 mold-contaminated building (1 million cubic feet approximately) was remediated by fumigating the building with chlorine dioxide gas at a concentration within the range of 2,500 to 3,000 ppmv over a period of 3 hours. Temperature was maintained at approximately 75° F. and the relative humidity was maintained at approximately 75% before and during fumigation. Carpets and other porous materials within the contaminated building were not removed prior to fumigation. […] Porous surfaces that were black, grey and green shades prior to treatment were returned to original appearance. The mold mass was also substantially eliminated such that one to four square foot samples were required to collect 0.1 to 0.25 grams of mold residue resulting in a 99+ percent elimination in mold mass. Samples of the treated material were analyzed by PCR (polymerase chain reaction) analysis for DNA. Depending upon the initial concentration levels a 3 to 7 log reduction in DNA was observed.

mold and mold spores [2] = experiment: Fumigation of an approximately 6000 square feet mold-contaminated structure with chlorine dioxide gas (Example 2); settings: 600 to 1300 ppmv for 12 hours, total CT over 9000 ppmv hours; 70 to 100° F., minimum 65% relative humidity; including mold underneath wallpaper
Description: A structure of approximately 6000 square feet consisting of three above surface floors and a basement was located that had developed significant mold growth of a variety of species due to water intrusion and appropriate environmental conditions. […] Mold growth was visible and abundant upon walls, ceilings and other surfaces.
The temperature of the structure was raised and maintained in the range of 70 to 100° F. (21 to 38° C.) and the relative humidity was raised to a minimum of 65%. Chlorine dioxide solution was generated in a closed fluid loop by the process described in U.S. Pat. No. 6,468,479. Chlorine dioxide gas was added to the structure at such a rate as to maintain a concentration of between 600 and 1300 ppmv for a 12 hour period and a total CT of over 9000 ppmv hours of chlorine dioxide.
Chlorine dioxide concentration and purity were monitored by AWWA standard method 6500-ClO2-E in solution phase and a modification therewith to adapt the procedure for gas phase sampling. […] The maximum chlorine dioxide concentration detected exterior to the containment tent was less than 2 parts per billion, well within the maximum exposure guidelines established.
Following treatment mold viability was evaluated in the structure. […]

mold spores = experiment: Mold remediation with chlorine dioxide gas, general finding; settings: time averaged concentration about 500 to 1500 ppmv over a 12 hour period
Description: It is an aspect of this invention to minimize the chlorine dioxide concentration and CT to the extent possible to assure decontamination while avoiding damage to building contents such as electronic equipment (e.g., telephone equipment, computers, copiers, and other electronic office equipment), furnishings, and the like. Typical chlorine dioxide concentrations are in the range of 500 to 3000 ppmv, and exposure times are typically about 8 to 12 hours. For mold remediation, a time averaged chlorine dioxide gas concentration in the range of about 500 to 1500 ppmv over a 12 hour period has been found effective for killing mold spores and eliminating allergenic effects.

**Q.** Which “elimination in mold mass” value (mold and mold spores [1]) does the source give for `[O][Cl+][O-]` [chlorine dioxide gas, chlorine dioxide] here?
**A.** The value was no less than 99%.

**Q.** And the “viable mold and mold spores in the facility” value (mold and mold spores [1])?
**A.** The value was “substantially eliminated viable mold and mold spores”.

**Q.** And the “mold and mold spores rendered non viable” value (mold and mold spores [2])?
**A.** Its value is roughly 100%.

**Q.** What about the “killing mold spores and eliminating allergenic effects” value (mold spores) of the same molecule?
**A.** The value was “effective”.
